Each block holds one compound with its values, some of them ahead of it.
What was measured:
[1] = Ratio of drug level in brain to plasma in Wistar rat; type: ADME, cell-free; details: read-out: BPR
[2] = Oral bioavailability in Wistar rat; type: ADME, organism-based; details: in vivo
Homo sapiens [3] = assay: Effect on sleep parameter in insomnia patient assessed as total sleep time at 400 mg, po by polysomnography; type: functional
[4] = Half life in iv dosed Wistar rat; type: ADME, organism-based; details: in vivo
Homo sapiens [5] = assay: Effect on sleep parameter in insomnia patient assessed as sleep efficiency at 400 mg, po by polysomnography; type: functional
[6] = Oral bioavailability in human; type: ADME, organism-based; details: in vivo
[7] = Oral bioavailability in Beagle dog; type: ADME, organism-based, Canis lupus familiaris; details: in vivo
Homo sapiens [8] = assay: Effect on sleep parameter in insomnia patient assessed as wake after sleep onset time at 200 mg, po by polysomnography; type: functional
Canis familiaris [9] = assay: Effect on sleep parameter in po dosed Beagle dog by EEG analysis; type: functional, Canis lupus familiaris
Rattus norvegicus [10] = assay: Effect on sleep parameter in po dosed Wistar rat by EEG analysis; type: functional
[11] = Plasma protein binding in Wistar rat; type: ADME, cell-free; details: read-out: PPB (converted)
Homo sapiens [12] = assay: Effect on sleep parameter in insomnia patient assessed as total sleep time at 200 mg, po by polysomnography; type: functional
Homo sapiens [13] = assay: Effect on sleep parameter in insomnia patient assessed as sleep efficiency at 50 mg, po by polysomnography; type: functional
Rattus norvegicus [14] = assay: Effect on sleep parameter in Wistar rat assessed as NREM sleep duration time at 100 mg/kg, po measured over 12 hrs (reference value: 243 +/- 8 min); type: functional
Homo sapiens [15] = assay: Effect on sleep parameter in insomnia patient assessed as latency to persistent sleep time at 400 mg, po by polysomnography; type: functional
Homo sapiens [16] = assay: Effect on sleep parameter in insomnia patient assessed as sleep efficiency at 100 mg, po by polysomnography; type: functional
Rattus norvegicus [17] = assay: Effect on sleep parameter in Wistar rat assessed as latency to persistent REM time at 100 mg/kg, po measured over 12 hrs (reference value: 101 +/- 17 min); type: functional
Rattus norvegicus [18] = assay: Effect on sleep parameter in Wistar rat assessed as REM sleep duration time at 100 mg/kg, po measured over 12 hrs (reference value: 33 +/- 4 min); type: functional
[19] = Elimination half life in human at 1 to 1000 mg administered as single dose; type: ADME, organism-based; details: in vivo, read-out: beta t1/2 (converted)
Homo sapiens [20] = assay: Effect on sleep parameter in insomnia patient assessed as total sleep time at 100 mg, po by polysomnography; type: functional
Homo sapiens [21] = assay: Effect on sleep parameter in insomnia patient assessed as wake after sleep onset time at 400 mg, po by polysomnography; type: functional
Homo sapiens [22] = assay: Effect on sleep parameter in insomnia patient assessed as latency to persistent sleep time at 50 mg, po by polysomnography; type: functional
[23] = Ratio of drug level in CSF to plasma in Wistar rat
Homo sapiens [24] = assay: Effect on sleep parameter in insomnia patient assessed as wake after sleep onset time at 50 mg, po by polysomnography; type: functional
Homo sapiens [25] = assay: Effect on sleep parameter in insomnia patient assessed as latency to persistent sleep time at 100 mg, po by polysomnography; type: functional
Homo sapiens [26] = assay: Effect on sleep parameter in insomnia patient assessed as sleep efficiency at 200 mg, po by polysomnography; type: functional
Homo sapiens [27] = assay: Effect on sleep parameter in insomnia patient assessed as total sleep time at 50 mg, po by polysomnography; type: functional
Homo sapiens [28] = assay: Effect on sleep parameter in insomnia patient assessed as latency to persistent sleep time at 200 mg, po by polysomnography; type: functional
Rattus norvegicus [29] = assay: Effect on sleep parameter in Wistar rat assessed as latency to persistent NREM time at 100 mg/kg, po measured over 12 hrs (reference value: 40 +/- 3 min); type: functional
[30] = Tmax in human at 1 to 1000 mg administered as single dose; type: ADME, organism-based; details: in vivo
Homo sapiens [31] = assay: Effect on sleep parameter in insomnia patient assessed as wake after sleep onset time at 100 mg, po by polysomnography; type: functional
[32] = Ratio of drug level in CSF to plasma in rat; type: ADME, cell-free
[33] = target: T1, Orexin/Hypocretin receptor type 1 (Homo sapiens, UniProt O43613); assay: Binding affinity to OX1R (unknown origin)
T1 sequence (O43613 whole entry): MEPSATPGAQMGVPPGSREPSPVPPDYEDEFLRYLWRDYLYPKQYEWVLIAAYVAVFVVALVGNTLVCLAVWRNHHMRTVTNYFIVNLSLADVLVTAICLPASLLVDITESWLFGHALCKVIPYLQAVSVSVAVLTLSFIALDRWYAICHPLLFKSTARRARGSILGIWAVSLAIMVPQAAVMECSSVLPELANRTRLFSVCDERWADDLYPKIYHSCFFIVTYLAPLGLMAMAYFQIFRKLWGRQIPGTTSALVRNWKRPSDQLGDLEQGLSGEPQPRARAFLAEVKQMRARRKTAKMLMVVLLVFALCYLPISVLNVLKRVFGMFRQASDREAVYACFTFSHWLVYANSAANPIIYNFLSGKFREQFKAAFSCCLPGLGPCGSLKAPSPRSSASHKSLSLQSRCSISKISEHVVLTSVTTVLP

[34] = Half life in iv dosed rat; type: ADME, organism-based; details: in vivo
[35] = Ratio of drug level in brain to plasma in rat; type: ADME, cell-free; details: read-out: BPR
Orexin receptor type 2 = target: T2, Orexin receptor type 2 (Homo sapiens, UniProt O43614); assay: Antagonist activity at human OX2R expressed in CHO cell membranes assessed as inhibition of orexin-A-induced intracellular calcium release after 120 mins; type: functional, cell-based
T2 sequence (O43614 whole entry): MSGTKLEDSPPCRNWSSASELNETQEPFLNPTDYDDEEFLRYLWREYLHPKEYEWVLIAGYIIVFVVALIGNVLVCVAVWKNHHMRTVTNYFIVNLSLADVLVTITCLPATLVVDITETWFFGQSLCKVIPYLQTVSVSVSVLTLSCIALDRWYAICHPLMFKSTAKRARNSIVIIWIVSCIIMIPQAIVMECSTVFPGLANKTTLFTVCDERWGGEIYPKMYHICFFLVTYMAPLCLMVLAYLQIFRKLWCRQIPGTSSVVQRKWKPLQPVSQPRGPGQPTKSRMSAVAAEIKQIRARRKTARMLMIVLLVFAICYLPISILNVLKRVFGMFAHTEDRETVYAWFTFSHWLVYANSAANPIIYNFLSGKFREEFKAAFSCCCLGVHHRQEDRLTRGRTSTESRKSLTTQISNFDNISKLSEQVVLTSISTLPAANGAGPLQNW

[36] = Clearance in iv dosed rat; type: ADME, organism-based; details: in vivo
[37] = Plasma protein binding in dog; type: ADME, cell-free, Canis lupus familiaris; details: read-out: PPB (converted)
Canis familiaris [38] = assay: Effect on sleep parameter in po dosed dog by EEG analysis; type: functional, Canis lupus familiaris
[39] = target: T1, Orexin/Hypocretin receptor type 1; assay: Antagonist activity at human OX1R expressed in CHO cell membranes assessed as inhibition of orexin-A-induced intracellular calcium release after 120 mins; type: functional, cell-based
[40] = Plasma protein binding in rat; type: ADME, cell-free; details: read-out: PPB (converted)
[41] = Half life in iv dosed dog; type: ADME, organism-based, Canis lupus familiaris; details: in vivo
[42] = Clearance in iv dosed dog; type: ADME, organism-based, Canis lupus familiaris; details: in vivo
[43] = Oral bioavailability in rat; type: ADME, organism-based; details: in vivo
Rattus norvegicus [44] = assay: Effect on sleep parameter in po dosed rat by EEG analysis; type: functional
[45] = Oral bioavailability in dog; type: ADME, organism-based, Canis lupus familiaris; details: in vivo
Rattus norvegicus [46] = species on record: Rattus norvegicus; assay: Receptor occupancy at OX2R in rat brain assessed as drug level in plasma; type: functional
[47] = Plasma protein binding in human; type: ADME, cell-free; details: read-out: PPB (converted)

Kp [1]: 0.3
bioavailability [2]: 8%
half-life [4]: 8 h
bioavailability [6]: 11%
bioavailability [7]: 18%
fraction unbound [11]: 0.01
half-life [19]: 13.1 h
Kp [23]: 0.002
Tmax [30]: 0.7 h
Compound: CNC(=O)[C@@H](c1ccccc1)N1CCc2cc(OC)c(OC)cc2[C@@H]1CCc1ccc(C(F)(F)F)cc1 [ALMOREXANT]
Time (Homo sapiens [3]): 69.7 min
Activity (Homo sapiens [5]): 14.4%
Time (Homo sapiens [8]): -34.3 min
Activity (Canis familiaris [9]): 100 mg/kg
Activity (Rattus norvegicus [10]): 30 mg/kg
Time (Homo sapiens [12]): 39.3 min
Activity (Homo sapiens [13]): 3.3%
Time (Rattus norvegicus [14]): 286 min
Time (Homo sapiens [15]): -18 min
Activity (Homo sapiens [16]): 4.6%
Time (Rattus norvegicus [17]): 91 min
Time (Rattus norvegicus [18]): 50 min
Time (Homo sapiens [20]): 21.4 min
Time (Homo sapiens [21]): -54 min
Time (Homo sapiens [22]): -5.7 min
Time (Homo sapiens [24]): -6.7 min
Time (Homo sapiens [25]): -10.4 min
Activity (Homo sapiens [26]): 8.2%
Time (Homo sapiens [27]): 15.8 min
Time (Homo sapiens [28]): -10.4 min
Time (Rattus norvegicus [29]): 30 min
Time (Homo sapiens [31]): -20.1 min

Kp [32]: 0.04
Ki [33]: 2.2 nM
half-life [34]: 0.5 h
Kp [35]: 1.1
IC50 (Orexin receptor type 2): 11 nM
clearance [36]: 67 mL/min/kg
fraction unbound [37]: 0.06
IC50 [39]: 11 nM
fraction unbound [40]: 0.05
half-life [41]: 2.3 h
clearance [42]: 5.8 mL/min/kg
bioavailability [43]: 25%
bioavailability [45]: 26%
fraction unbound [47]: 0.025
Compound: Cc1ccc(-c2ncccn2)c(C(=O)N2C[C@H](COc3ccc(F)cn3)CC[C@H]2C)c1 [FILOREXANT]
Activity (Canis familiaris [38]): 0.25 mg/kg
Activity (Rattus norvegicus [44]): 3 mg/kg
Occ90 (Rattus norvegicus [46]): 142 nM
